Experimental data from US7138361B2, “Herbicidal heterocycles” (E. I. du Pont de Nemours and Company, priority 2000, dated 2006).

Columns and labels:
Format in all cases: in vivo
[1] = test system: woolly cupgrass (Eriochloa villosa); test: Test C preemergence; settings: for Plant response rating, Cupgrass, Woolly: scale 0 to 100, 0 no effect, 100 complete control; for Plant response rating (0 to 100), Cupgrass, Woolly: preemergence, visual evaluation after 12 to 14 days
In short: (§1)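 Herbicidal effect is a visual 0–100 score (100 = complete control) assigned versus untreated plants, 12 to 14 days after spraying in the greenhouse. Test compounds were applied in a non-phytotoxic, surfactant-containing solvent.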

[2] = test system: johnsongrass (Sorghum halepense); test: Test C preemergence; settings: for Plant response rating, Johnsongrass: scale 0 to 100, 0 no effect, 100 complete control; for Plant response rating (0 to 100), Johnsongrass: preemergence, visual evaluation after 12 to 14 days
In short: as §1

[3] = test system: velvetleaf (Abutilon theophrasti); test: Test C preemergence; settings: for Plant response rating, Velvetleaf: scale 0 to 100, 0 no effect, 100 complete control
In short: as §1

[4] = test system: pigweed (Amaranthus retroflexus); test: Test C preemergence; settings: for Plant response rating, Pigweed: scale 0 to 100, 0 no effect, 100 complete control
In short: as §1

[5] = test system: Sunflower; test: Test C preemergence; settings: Rate 125 g/ha; scale 0 to 100, 0 no effect, 100 complete control
[6] = test system: Surinam grass (Brachiaria decumbens); test: Test C preemergence; settings: for Plant response rating, Surinam grass: scale 0 to 100, 0 no effect, 100 complete control; for Plant response rating (0 to 100), Surinam grass: preemergence, visual evaluation after 12 to 14 days
In short: as §1

[7] = test system: Nightshade; test: Test C preemergence; settings: scale 0 to 100, 0 no effect, 100 complete control
[8] = test system: cocklebur (Xanthium strumarium); test: Test C preemergence; settings: for Plant response rating, Cocklebur: scale 0 to 100, 0 no effect, 100 complete control; for Plant response rating (0 to 100), Cocklebur: preemergence, visual evaluation after 12 to 14 days
In short: as §1

[9] = test system: soybean (Glycine max); test: Test C preemergence; settings: for Plant response rating, Soybean: scale 0 to 100, 0 no effect, 100 complete control
In short: as §1

[10] = test system: lambsquarters (Chenopodium album); test: Test C preemergence; settings: for Plant response rating, Lambsquarters: scale 0 to 100, 0 no effect, 100 complete control
In short: as §1

[11] = test system: giant foxtail (Setaria faberii); test: Test C preemergence; settings: for Plant response rating, Foxtail, Giant: scale 0 to 100, 0 no effect, 100 complete control; for Plant response rating (0 to 100), Foxtail, Giant: preemergence, visual evaluation after 12 to 14 days
In short: as §1

[12] = test system: bermudagrass (Cynodon dactylon); test: Test C preemergence; settings: for Plant response rating, Bermudagrass: scale 0 to 100, 0 no effect, 100 complete control; for Plant response rating (0 to 100 where 0 is no effect and 100 is complete control), Bermudagrass: preemergence, visual evaluation after 12 to 14 days
In short: as §1

[13] = test system: corn (Zea mays); test: Test C preemergence; settings: for Plant response rating, Corn: scale 0 to 100, 0 no effect, 100 complete control; for Plant response rating (0 to 100), Corn: preemergence, visual evaluation after 12 to 14 days
In short: as §1

[14] = test system: kochia (Kochia scoparia); test: Test C preemergence; settings: for Plant response rating, Kochia: scale 0 to 100, 0 no effect, 100 complete control
In short: as §1

[15] = test system: common ragweed (Ambrosia elatior); test: Test C preemergence; settings: for Plant response rating, Ragweed, Common: scale 0 to 100, 0 no effect, 100 complete control
In short: as §1

[16] = test system: Sunflower; test: Test C preemergence; settings: Rate 500 g/ha, visual evaluation after 12 to 14 days
[17] = test system: crabgrass (Digitaria sanguinalis); test: Test B postemergence; settings: 13 to 15 days
In short: (§2)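 Post-treatment, species sat 13–15 days under greenhouse conditions before visual scoring against controls, 0 (no effect) through 100 (complete control). Application preemergence to sown seeds or postemergence at 1- to 4-leaf stage, using a non-phytotoxic solvent/surfactant formulation.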

[18] = test system: cocklebur (Xanthium strumarium); test: Test B postemergence; settings: 13 to 15 days
In short: as §2

[19] = test system: lambsquarters (Chenopodium album); test: Test B postemergence; settings: 13 to 15 days
In short: as §2

[20] = test system: wild oat (Avena fatua); test: Test B postemergence; settings: 13 to 15 days
In short: as §2

[21] = preemergence, Rate 500 g/ha, visual evaluation after 12 to 14 days
[22] = Rate 125 g/ha, scale 0 (no effect) to 100 (complete control)
[23] = Rate 500 g/ha, scale 0 to 100, 0 is no effect, 100 is complete control

CC(C)(C)c1ccn(C2CCN(c3ccc(F)c(Br)c3)C2=O)n1 (stereo not drawn) [Compound 75]
Plant response rating, Cupgrass, Woolly ([1]; Rate 62 g/ha): 60 | Plant response rating, Cupgrass, Woolly ([1]; Rate 125 g/ha): 80 | Plant response rating (0 to 100), Cupgrass, Woolly ([1]; Rate 250 g/ha): 100 | Plant response rating (0 to 100), Cupgrass, Woolly ([1]; Rate 500 g/ha): 100 | Plant response rating, Johnsongrass ([2]; Rate 62 g/ha): 0 | Plant response rating, Johnsongrass ([2]; Rate 125 g/ha): 0 | Plant response rating (0 to 100), Johnsongrass ([2]; Rate 250 g/ha): 30 | Plant response rating (0 to 100), Johnsongrass ([2]; Rate 500 g/ha): 30 | Plant response rating, Velvetleaf ([3]; Rate 125 g/ha): 0 | Plant response rating (0 to 100), Velvetleaf [3, 21]: 0 | Plant response rating, Velvetleaf ([3]; preemergence, Rate 250 g/ha): 0 | Plant response rating, Pigweed ([4]; Rate 125 g/ha): 100 | Plant response rating (0 to 100), Pigweed [4, 21]: 100 | Plant response rating, Pigweed ([4]; preemergence, Rate 250 g/ha): 100 | Plant response rating, Sunflower [5]: 0 | Plant response rating, Surinam grass ([6]; Rate 62 g/ha): 10 | Plant response rating, Surinam grass ([6]; Rate 125 g/ha): 40 | Plant response rating (0 to 100), Surinam grass ([6]; Rate 250 g/ha): 60 | Plant response rating (0 to 100), Surinam grass ([6]; Rate 500 g/ha): 60 | Plant response rating, Nightshade ([7]; Rate 62 g/ha): 0 | Plant response rating, Nightshade ([7]; Rate 125 g/ha): 0 | Plant response rating, Nightshade ([7]; Rate 250 g/ha): 0 | Plant response rating, Cocklebur ([8]; Rate 62 g/ha): 0 | Plant response rating, Cocklebur ([8]; Rate 125 g/ha): 0 | Plant response rating (0 to 100), Cocklebur ([8]; Rate 250 g/ha): 0 | Plant response rating (0 to 100), Cocklebur ([8]; Rate 500 g/ha): 0 | Plant response rating, Soybean ([9]; Rate 125 g/ha): 0 | Plant response rating (0 to 100), Soybean [9, 21]: 50 | Plant response rating, Soybean ([9]; preemergence, Rate 250 g/ha): 0 | Plant response rating, Lambsquarters ([10]; Rate 62 g/ha): 100 | Plant response rating, Lambsquarters ([10]; Rate 125 g/ha): 100 | Plant response rating (0 to 100), Lambsquarters [10, 21]: 100 | Plant response rating, Lambsquarters ([10]; preemergence, Rate 250 g/ha): 100 | Plant response rating, Foxtail, Giant ([11]; Rate 62 g/ha): 90 | Plant response rating, Foxtail, Giant ([11]; Rate 125 g/ha): 100 | Plant response rating (0 to 100), Foxtail, Giant ([11]; Rate 250 g/ha): 70 | Plant response rating (0 to 100), Foxtail, Giant ([11]; Rate 500 g/ha): 100 | Plant response rating, Bermudagrass ([12]; Rate 62 g/ha): 100 | Plant response rating, Bermudagrass ([12]; Rate 125 g/ha): 100 | Plant response rating (0 to 100 where 0 is no effect and 100 is complete control), Bermudagrass ([12]; Rate 250 g/ha): 100 | Plant response rating (0 to 100 where 0 is no effect and 100 is complete control), Bermudagrass ([12]; Rate 500 g/ha): 100 | Plant response rating, Corn ([13]; Rate 62 g/ha): 0 | Plant response rating, Corn ([13]; Rate 125 g/ha): 0 | Plant response rating (0 to 100), Corn ([13]; Rate 250 g/ha): 0 | Plant response rating (0 to 100), Corn ([13]; Rate 500 g/ha): 0 | Plant response rating, Kochia ([14]; Rate 62 g/ha): 100 | Plant response rating, Kochia ([14]; Rate 125 g/ha): 100 | Plant response rating (0 to 100), Kochia ([14]; preemergence, Rate 250 g/ha, visual evaluation after 12 to 14 days): 100 | Plant response rating, Ragweed, Common ([15]; Rate 125 g/ha): 0 | Plant response rating (0 to 100), Ragweed, Common [15, 21]: 60 | Plant response rating, Ragweed, Common ([15]; preemergence, Rate 250 g/ha): 0 | Plant response rating (0 to 100), Sunflower [16]: 50 | Plant response rating, Crabgrass [17, 22]: 0 | Plant response rating, Crabgrass [17, 23]: 0 | Plant response rating, Cocklebur [18, 22]: 0 | Plant response rating, Cocklebur [18, 23]: 0 | Plant response rating, Lambsquarters [19, 22]: 70 | Plant response rating, Lambsquarters [19, 23]: 80 | Plant response rating, Wild Oat [20, 22]: 0 | Plant response rating, Wild Oat [20, 23]: 0
